Data on four molecules can be found in patent US20060078584A1, “Multi-functional oxidizing composition” (priority 2004, published 2006).

The conditions of data set [1]: cited from earlier work.
The nature of data set [2]: Storage stability of dry blends (ambient and accelerated aging in humid oven). The class given is physicochemical. To be noted: one month. Here is the method:
In all examples, active oxidant concentrations are expressed in weight percent and are determined by standard iodometric titration as described in the “OXONE Monopersulfate Compound Technical Information” Bulletin, No. H-42434-5, dated April 2000, published by E. I. du Pont de Nemours and Company.
A weighed sample (0.05-0.30 g) to be analyzed is dissolved in cold deionized water (<10° C., about 50 mL), treated with potassium iodide solution (10 mL 25% aqueous), acidified (10 mL 20% sulfuric acid), and titrated with standardized 0.1N sodium thiosulfate reagent to an endpoint visualized by a starch indicator. The total active oxidant content (active oxygen+active halogen) is expressed as percent active oxygen (% AO) and is calculated as follows: % AO=(0.8×Volume of titrant, mL)(Normality of titrant)/(Sample Weight, g).
OXONE monopersulfate compound (180 g, 90 wt. %) and anhydrous sodium dichloro-s-triazinetrione (20 g, 10 wt. %) were dry blended in a 250-ml high-density poly(propylene (HDPE) bottle. The mixture was placed on a laboratory roll mill for two hours to ensure complete blending of the components. The blended product was then divided into two portions. One portion was stored at ambient conditions (22±2° C., 55±5% relative humidity [RH]); the other in a humid oven at 50±2° C., 80±5% RH denoted as “accelerated aging”). Both portions were stored in sealed screw-cap HDPE bottles. Both samples were monitored on a weekly basis for one month to assess physical integrity and active oxidant loss. […]. […].

Data set [3] is described as follows: Solubility in water and in acidic potassium monopersulfate solution. Conditions: in a 20% potassium monopersulfate solution, pH of about 1.2.
Setting [4] is: accelerated aging, 50° C., 80% RH.
Where [5] appears, read: accelerated aging, 50±2° C., 80±5% RH, sealed HDPE containers.

Where two headings read alike, the source gives them in different places.

In the case of `CC1(C)C(=O)N(Br)C(=O)N1Cl` [bromochlorodimethylhydantion, 3-bromo-1-chloro-5,5-dimethylhydantoin], in data set [1], the Solubility in water is 0.2 g/100 g water.

Take `CC1(C)C(=O)N(Cl)C(=O)N1Cl` [dichlorodimethylhydantion, 1,3-dichloro-5,5-dimethylhydantoin]: the Solubility in water in data set [1] is recorded as 0.2 g/100 g water.

For the molecule `CC1(C)C(=O)N(Br)C(=O)N1Br` [dibromodimethylhydantion, 1,3-dibromo-5,5-dimethylhydantoin], the Solubility in water in data set [1] is given as 0.25 g/100 g water.

Take `O=c1nc([O-])n(Cl)c(=O)n1Cl.[Na+]` [Comparative Example E, Anhydrous sodium dichloro-s-triazinetrione]: in data set [2] (setting [4]), the “Active oxidant retention / loss” value is recorded as “acceptable active oxidant stability”, the “Chlorine odor / halogen evolution” value is recorded as “characteristic chlorine odor” and the “Flowability” value is “good flowability”. For the same molecule, in data set [2] (setting [5]), the “Chlorine Odor (degree 0-5)” value is reported as 3 and the Flowability result was “Free-flowing”. Also, the “Total % AO Remaining (%)” value in data set [2] (total oxidant (active oxygen + active halogen) remaining after accelerated storage, 50° C., 80% RH) came to 93%. Besides, the Solubility in water result in data set [1] (neutral pH (about pH 6-7), 25° C.) is listed as “about 24 g/100 g H2O”. In data set [3], the Solubility entry is “about 1 g/100 mL”.
